Tested on: 994946-033-R-J1-PDC complex spheroid viability
Test: Anticancer human tumor 994946-033-R-J1-PDC patient-derived melanoma cell line growth inhibition [POLQ]
Settings: for IC50: curve of first compound; for viability, T/C: stronger effect = lower value; active = viability on the fitted dose curve at most 10% of control; inactive = the rest
In short: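 Complex spheroid viability model combining PDC tumour cells with endothelial (HUVEC) and MSC stromal cells. Novobiocin, ART-558 or RP6685 were tested singly and in combination with standard and investigational anticancer drugs. Each was titrated in half-log steps from near clinical Cmax, or from 10 microM where Cmax was unknown.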

[1] = second compound 0.0316 µM, first compound 0.0316 µM
[2] = second compound 0.0316 µM, first compound 0.1 µM
[3] = second compound 0.1 µM, first compound 0.0316 µM
[4] = second compound 0.1 µM, first compound 0.1 µM
[5] = second compound 0.316 µM, first compound 0.0316 µM
[6] = second compound 0.316 µM, first compound 0.1 µM
[7] = second compound 1 µM, first compound 0.0316 µM
[8] = second compound 1 µM, first compound 0.1 µM
[9] = second compound 3.16 µM, first compound 0.0316 µM
[10] = second compound 3.16 µM, first compound 0.1 µM
[11] = second compound 10 µM, first compound 0.0316 µM
[12] = second compound 10 µM, first compound 0.1 µM
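Also: spheroids exposed to drugs for 7 days.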
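For viability, T/C in this document: 100% = DMSO vehicle treated spheroids.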

Cn1ncnc1[C@H]1c2n[nH]c(=O)c3cc(F)cc(c23)N[C@@H]1c1ccc(F)cc1 + Cc1cccc(N(C)C(=O)C2C(O)CCN2c2nc(C)cc(C(F)(F)F)c2C#N)c1
inactive: viability, T/C (second compound 0.0316 µM, first compound 0.000316 µM) 105% | viability, T/C (second compound 0.0316 µM, first compound 0.001 µM) 85.7% | viability, T/C (second compound 0.0316 µM, first compound 0.00316 µM) 86.8% | viability, T/C (second compound 0.0316 µM, first compound 0.01 µM) 77.2% | viability, T/C [1] 87.7% | viability, T/C [2] 75.1% | viability, T/C (second compound 0.1 µM, first compound 0.000316 µM) 81.5% | viability, T/C (second compound 0.1 µM, first compound 0.001 µM) 107% | viability, T/C (second compound 0.1 µM, first compound 0.00316 µM) 78.3% | viability, T/C (second compound 0.1 µM, first compound 0.01 µM) 87.8% | viability, T/C [3] 88.3% | viability, T/C [4] 64.2% | viability, T/C (second compound 0.316 µM, first compound 0.000316 µM) 115% | viability, T/C (second compound 0.316 µM, first compound 0.001 µM) 118% | viability, T/C (second compound 0.316 µM, first compound 0.00316 µM) 77.8% | viability, T/C (second compound 0.316 µM, first compound 0.01 µM) 99.2% | viability, T/C [5] 74.8% | viability, T/C [6] 56% | viability, T/C (second compound 1 µM, first compound 0.000316 µM) 134% | viability, T/C (second compound 1 µM, first compound 0.001 µM) 91% | viability, T/C (second compound 1 µM, first compound 0.00316 µM) 95.9% | viability, T/C (second compound 1 µM, first compound 0.01 µM) 80.2% | viability, T/C [7] 76.9% | viability, T/C [8] 66.9% | viability, T/C (second compound 3.16 µM, first compound 0.000316 µM) 111% | viability, T/C (second compound 3.16 µM, first compound 0.001 µM) 111% | viability, T/C (second compound 3.16 µM, first compound 0.00316 µM) 98% | viability, T/C (second compound 3.16 µM, first compound 0.01 µM) 76% | viability, T/C [9] 87.3% | viability, T/C [10] 78.7% | viability, T/C (second compound 10 µM, first compound 0.000316 µM) 109% | viability, T/C (second compound 10 µM, first compound 0.001 µM) 65% | viability, T/C (second compound 10 µM, first compound 0.00316 µM) 95.7% | viability, T/C (second compound 10 µM, first compound 0.01 µM) 106% | viability, T/C [11] 74.8% | viability, T/C [12] 69.3%
> 0.1 µM: IC50 (second compound 0.0316 µM) | IC50 (second compound 0.1 µM) | IC50 (second compound 0.316 µM) | IC50 (second compound 1 µM) | IC50 (second compound 3.16 µM) | IC50 (second compound 10 µM)

O=C(c1cc(Cc2n[nH]c(=O)c3ccccc23)ccc1F)N1CCN(C(=O)C2CC2)CC1 + Cc1cccc(N(C)C(=O)C2C(O)CCN2c2nc(C)cc(C(F)(F)F)c2C#N)c1
4.89 µM: IC50 (second compound 3.16 µM)
4.16 µM: IC50 (second compound 0.1 µM)
> 10 µM: IC50 (second compound 10 µM)
8.94 µM: IC50 (second compound 0.316 µM)
6.12 µM: IC50 (second compound 0.0316 µM)
6.77 µM: IC50 (second compound 1 µM)
inactive: viability, T/C [1] 103% | viability, T/C [2] 92.8% | viability, T/C (second compound 0.0316 µM, first compound 0.316 µM) 82.3% | viability, T/C (second compound 0.0316 µM, first compound 1 µM) 94.2% | viability, T/C (second compound 0.0316 µM, first compound 3.16 µM) 80.2% | viability, T/C (second compound 0.0316 µM, first compound 10 µM) 27.3% | viability, T/C [3] 100% | viability, T/C [4] 105% | viability, T/C (second compound 0.1 µM, first compound 0.316 µM) 89.9% | viability, T/C (second compound 0.1 µM, first compound 1 µM) 69.6% | viability, T/C (second compound 0.1 µM, first compound 3.16 µM) 57.9% | viability, T/C (second compound 0.1 µM, first compound 10 µM) 35.9% | viability, T/C [5] 106% | viability, T/C [6] 95.3% | viability, T/C (second compound 0.316 µM, first compound 0.316 µM) 82.5% | viability, T/C (second compound 0.316 µM, first compound 1 µM) 86.8% | viability, T/C (second compound 0.316 µM, first compound 3.16 µM) 92% | viability, T/C (second compound 0.316 µM, first compound 10 µM) 45.5% | viability, T/C [7] 79.7% | viability, T/C [8] 102% | viability, T/C (second compound 1 µM, first compound 0.316 µM) 81.7% | viability, T/C (second compound 1 µM, first compound 1 µM) 84.3% | viability, T/C (second compound 1 µM, first compound 3.16 µM) 75.6% | viability, T/C (second compound 1 µM, first compound 10 µM) 37% | viability, T/C [9] 105% | viability, T/C [10] 97.6% | viability, T/C (second compound 3.16 µM, first compound 0.316 µM) 79.5% | viability, T/C (second compound 3.16 µM, first compound 1 µM) 88.3% | viability, T/C (second compound 3.16 µM, first compound 3.16 µM) 56.8% | viability, T/C (second compound 3.16 µM, first compound 10 µM) 33.3% | viability, T/C [11] 110% | viability, T/C [12] 93.4% | viability, T/C (second compound 10 µM, first compound 0.316 µM) 83.3% | viability, T/C (second compound 10 µM, first compound 1 µM) 78% | viability, T/C (second compound 10 µM, first compound 3.16 µM) 77.5% | viability, T/C (second compound 10 µM, first compound 10 µM) 56.1%
